Laboratory results published in paper PMC5955599, “The HTLV-1 gp21 fusion peptide inhibits antigen specific T-cell activation in-vitro and in mice” (PLoS Pathogens, 2018).

Assays:
[1] = tested on: MOG35-55–antigen specific T-cells; test: Cytokine secretion from activated antigen-specific T-cells (ELISA); format: cell-based, mouse (C57Bl/6J); conditions: peptide at 10μM, APC-activated T-cells, media 24 hours following activation, n = 12
Experimental: Fig 2 Modulation of Th1/Th2 gene expression and cytokine secretion from activated T-cells by the HTLV FP. MOG35-55–antigen specific T-cells were activated by irradiated MOG35-55 presenting APCs, in the presence of the HTLV FP at 10μM. (A) Total RNA was isolated 24 hours following activation and mRNA expression levels were determined by qRT-PCR. The values of each gene were normalized to Rpl13a as a housekeeping control. The HTLV FP reduces mRNA expression of Th1 specific genes (IFNG, LTA, and STAT4) and elevates mRNA expression of Th2 specific genes (IL4 and IL10). The data is presented as arbitrary units. n≥3. (B) Media was collected 24 hours following activation and secretion of cytokines was measured by ELISA assay. IFN-γ secretion is inhibited, IL4 secretion is elevated and TNFα is not affected by the HTLV FP. n = 12. One-way ANOVA was used for statistical analysis. *P<0.05; **P<0.01;***P<0.001.
Antigen-specific T-cells were plated onto round 96-well plates in medium containing RPMI-1640 supplemented with 2.5% fetal calf serum (FCS), 100 U/ml penicillin, 100 μg/ml streptomycin, 50μM β-mercaptoethanol, and 2mM L-glutamine. […] In addition, the relevant peptide was added. Each treatment was made with quadruplicate. Analysis of IFN-γ, IL-4 and TNFα secretion was performed by ELISA 24 hours after cell activation according to standard protocols from R&D systems.

[2] = tested on: human peripheral T lymphocytes; test: Cytokine secretion from primary human peripheral T-cells (ELISA); format: cell-based; conditions: peptide at 10μM, CD3 and CD28 antibodies, media 48 hours following activation, n = 12
Experimental: Fig 4 Primary human T-cell activation is inhibited upon HTLV FP treatment. Human peripheral T lymphocytes were isolated from whole blood and activated using CD3 and CD28 antibodies, in the presence of HTLV FP or HTLV Scr at 10μM. Media was collected 48 hours following activation and secretion of IL2, IFN-γ and IL10 was measured by ELISA assay. […] One-way ANOVA was used for statistical analysis. *P<0.05; ***P<0.001; ns, not significant.
Human peripheral T lymphocytes were isolated from whole blood of healthy adult donors by dextran sedimentation and Ficoll (Sigma) gradient separation followed by depletion of B cells using nylon wool column (Unisorb), to which B cells were adsorbed. Cells were incubated in a complete RPMI growth medium (500 ml RPMI Ca/Mg + heat inactivated FCS (10% final) + 5 ml 200 mM L-Glu (2 mM final) +5 ml […] Na pyruvate (1 mM final) + 5 ml Pen Strep antibiotics) for more than 2 h, and then non-adherent cells were harvested and transferred to a new plate, resulting in ~90% CD3+ T lymphocytes. Cells were then used for in vitro assay, in which […] were plated per well in a 96-well plate and activated using CD3 and CD28 antibodies.
Human peripheral T lymphocytes were isolated from whole blood of healthy donors and were incubated in a complete RPMI growth medium (500 ml RPMI Ca/Mg + heat inactivated FCS (10% final) + 5 ml 200 mM L-Glu (2 mM final) +5 ml […] Na pyruvate (1 mM final) + 5 ml Pen Strep antibiotics). Cells were activated using CD3 and CD28 antibodies, in the presence of relevant peptides at 10μM. Media was collected 48 hours following activation and secretion of IL2 and IFN-γ was determined according to standard protocols from R&D systems.

[3] = tested on: mouse MOG35-55–antigen specific T cells; conditions: XTT, n = 4
Experimental: Aliquots of 10^4 cells were distributed onto a 96-well plate in the presence of 1.25–40μM of the relevant peptides for 16 or 72 hours. Following incubation, XTT reaction solution (benzene sulfonic acid hydrate and N-methyl dibenzopyrazine methyl sulfate, mixed in a proportion of 50:1), was added for 2 hours. Optical density was read at 450-nm wavelength. The percentage of toxicity was calculated relative to the control, 10^4 cells in medium with no peptide added.
Viability of cells was analyzed by an XTT cytotoxicity assay. MOG35-55–antigen specific T cells were incubated with peptides at concentrations ranging from 40μM to 2.5μM in serial dilutions (from black to light gray respectively). (A) Viability was analyzed following overnight (16 hours) incubation with peptides. (B) Viability was analyzed following 72 hour incubation with the peptide. The data is presented as mean percent viability. Error bars represent ± S.E.M. n = 4. (TIF) Click here for additional data file.

AVPVAVWLVSALAMGAGVAGGITGSMSLASGKS [HTLV FP]
IFN-γ secretion [1]: inhibited both T-cell proliferation and IFN-γ secretion with higher potency than the HTLV Scr | IL4 secretion [1]: elevated IL4 secretion | TNF-α secretion [1]: had no effect on TNF-α secretion | IFN-γ secretion, human T-cells [2]: significant reduction in IFN-γ and IL2 secretion | IL2 secretion, human T-cells [2]: significant reduction in IFN-γ and IL2 secretion | IL10 secretion, human T-cells [2]: elevation in IL10 secretion | toxicity to mouse T-cells, 72 hours ([3]; peptide 40μM to 2.5μM, 72 hour incubation): not toxic up to 4-fold higher than the concentrations used in this study | toxicity to mouse T-cells, 16 hours ([3]; peptides 40μM to 2.5μM, overnight (16 hours) incubation): not toxic up to 4-fold higher than the concentrations used in this study
